Laboratory results reported in the NIST ThermoML archive (doi:10.1016/j.fluid.2010.10.022).
± gives the expanded uncertainty stated by the source.

Experiment: excess molar enthalpy (molar enthalpy of mixing); xn = mol fraction of the nth substance listed
Conditions: 298.15 K, 101 kPa, Liquid, Flow calorimetry

CC#CCCC [2-hexyne] + CCCOC(C)=O
Conditions | excess molar enthalpy [kcal/mol]
x2 = 0.1094 | 0.0106 ± 0.00239
x2 = 0.204 | 0.0174 ± 0.00239
x2 = 0.3153 | 0.022 ± 0.00239
x2 = 0.4179 | 0.0249 ± 0.00239
x2 = 0.5044 | 0.0245 ± 0.00239
x2 = 0.5938 | 0.0215 ± 0.00239
x2 = 0.7075 | 0.0157 ± 0.00239
x2 = 0.7983 | 0.0108 ± 0.00239
x2 = 0.8927 | 0.00645 ± 0.00239

C#CCCCC [1-hexyne] + CCCOC(C)=O
Conditions | excess molar enthalpy [kcal/mol]
x2 = 0.1079 | -0.0304 ± 0.00239
x2 = 0.1967 | -0.0477 ± 0.00239
x2 = 0.3032 | -0.0608 ± 0.00239
x2 = 0.395 | -0.066 ± 0.00239
x2 = 0.4373 | -0.0664 ± 0.00239
x2 = 0.5003 | -0.0654 ± 0.00239
x2 = 0.595 | -0.0605 ± 0.00239
x2 = 0.6575 | -0.0553 ± 0.00239
x2 = 0.6989 | -0.0511 ± 0.00239
x2 = 0.7967 | -0.038 ± 0.00239
x2 = 0.8992 | -0.0205 ± 0.00239

CCC#CCC [3-hexyne] + CCCOC(C)=O
Conditions | excess molar enthalpy [kcal/mol]
x2 = 0.0968 | 0.0105 ± 0.00239
x2 = 0.202 | 0.0186 ± 0.00239
x2 = 0.3025 | 0.0269 ± 0.00239
x2 = 0.4063 | 0.0341 ± 0.00239
x2 = 0.4979 | 0.0377 ± 0.00239
x2 = 0.5956 | 0.0353 ± 0.00239
x2 = 0.7045 | 0.0267 ± 0.00239
x2 = 0.7995 | 0.0182 ± 0.00239
x2 = 0.8928 | 0.0101 ± 0.00239
